Results from publication PMC3242765, “Inhibitors of Alphavirus Entry and Replication Identified with a Stable Chikungunya Replicon Cell Line and Virus-Based Assays” (PLoS ONE, 2011).
“Also recorded” adds a separate entry of the source. Like-named read-outs stand apart in the source and are kept apart here.

Legend:
BHK-CHIKV-NCT cells = assay: Cell viability ATP assay, BHK-CHIKV-NCT cells; format: cell-based, hamster
BHK cells = assay: Cell viability ATP assay, BHK cells; format: cell-based, hamster; conditions: Mesocricetus auratus, BHK, 48 h, read-out: Cell viability IC50
SFV [1] = assay: CPE reduction assay, SFV (WST-1); format: cell-based, Semliki Forest virus (SFV); conditions: Semliki Forest virus, BHK, 22 h, read-out: SFV IC50 (CPE reduction)
SINV = assay: CPE reduction assay, SINV (WST-1); format: cell-based, Sindbis virus (SINV); conditions: Sindbis virus, BHK, 24 h, read-out: SINV IC50 (CPE reduction)
SFV [2] = assay: Viral yield analysis using a plaque assay; format: cell-based, Semliki Forest virus (SFV); conditions: for SFV yield: BHK cells, MOI 0.01, 50 µM compound, 16 h, untreated control 1.4×10^9 PFU/ml; for Decrease of SFV titer versus untreated control: 50 µM compound, MOI 0.01, 16 h
CHIKV-Rluc = assay: microbe, parasite or virus in culture; format: cell-based, Chikungunya virus (CHIKV); conditions: Chikungunya virus, BHK, 16 h, read-out: CHIKV-Rluc IC50
CHIKV [3] = conditions: cited from earlier work
SFV-Rluc [4] = assay: microbe, parasite or virus in culture; conditions: Semliki Forest virus, BHK; for IC50: 14 h, read-out: SFV IC50
CHIKV replicon = assay: microbe, parasite or virus in culture; format: cell-based, Chikungunya virus (CHIKV)
SFV-Rluc [5] = conditions: for IC50: read-out: SFV IC50
SFVts9-Rluc = format: cell-based, Semliki Forest virus (SFV)
CHIKV [6] = conditions: 2006 La Réunion outbreak; cited from earlier work
[7] = Mesocricetus auratus, 48 h, read-out: Cell viability IC50, ATP assay, 48 h exposure of BHK-CHIKV-NCT cells, up to 200 µM
[8] = Chikungunya virus, 48 h, read-out: EGFP IC50
[9] = Chikungunya virus, 48 h, read-out: Rluc IC50

SMILES | IC50 (BHK-CHIKV-NCT cells; [7]) [µM] | IC50 (BHK cells) [µM] | IC50 (SFV [1]) [µM] | IC50 (SINV) [µM] | SFV yield (SFV [2]) | IC50 (CHIKV-Rluc) [µM] | IC50 (SFV-Rluc [4]) [µM] | IC50 (CHIKV replicon; [8]) [µM] | IC50 (CHIKV replicon; [9]) [µM] | SI (selectivity index) (SFV-Rluc [5]) | Effect on SFV entry (Rluc activity) (SFVts9-Rluc) | Decrease of SFV titer versus untreated control (SFV [2]) | CHIKV replicon % left (CHIKV replicon) [%] | SFV replication % left (surviving fraction, remaining percentage of SFV replication) (SFV-Rluc [5]) [%] | also measured
O=c1cnn([C@@H]2O[C@H](CO)[C@@H](O)[C@H]2O)c(=O)[nH]1 [6-Azauridine] | > 200 | > 200 | > 200 | > 200 | 9.1×10^7 PFU/ml | 29.7 | > 200 | – | – | – | – | – | – | – | IC50 (CHIKV [3]; approximate conversion of 0.2 µg/ml, read-out: previously reported potency for CHIKV, converted): ~0.8 µM; previously reported potency for CHIKV (CHIKV [3]): 0.2 mg/L; inhibition at 200 µM (SFV-Rluc [4]; read-out: Inhibition of SFV-Rluc): 40%
CN(C)CCCN1c2ccccc2Sc2cccnc21 [Prothipendyl] | 186 | > 200 | 34.2 | 46.5 | 4.0×10^8 PFU/ml | 97.3 | 8.2 | 135 | 93.3 | >24.4 | – | – | – | – | –
CCN(CC)C(C)CN1c2ccccc2Sc2ccccc21 (centres unmarked) [Ethopropazine] | – | 167 | 17.1 | 21.4 | 8.1×10^8 PFU/ml | 61.5 | 16 | – | – | 10.4 | decreased the Rluc activity | – | – | – | –
Nc1ncnc2c1ncn2[C@@H]1O[C@H](CO)[C@@H](N)[C@H]1O [3′-NH2-3′-deoxyadenosine, 3′-amino-3′-deoxyadenosine] | 187 | 174 | 17.5 | 23.4 | 2.7×10^7 PFU/ml | – | 16.2 | 34 | 62.4 | 10.7 | – | two orders of magnitude | – | – | –
COc1cc(C2Oc3cc([C@H]4Oc5cc(O)cc(O)c5C(=O)[C@@H]4O)ccc3OC2CO)ccc1O (some centres unmarked) [Silybin] | > 200 | > 200 | 9.6 | 22.6 | 3.7×10^8 PFU/ml | 92.3 | 16.4 | 71.1 | 59.8 | >12.2 | None of the other compounds, including the flavonoids apigenin, chrysin, naringenin and silybin, inhibited SFV entry | – | 14.1 | 22.4 | –
NC(=O)c1ncn([C@@H]2O[C@H](CO)[C@@H](O)[C@H]2O)n1 [Ribavirin] | > 200 | > 200 | 28.1 | 51.8 | 2.1×10^8 PFU/ml | – | ~100 | 8.8 | 25.4 | – | – | approximately one order of magnitude | – | – | Change of replicon IC50 with guanosine supplementation (CHIKV replicon): increased by at least two orders of magnitude; IC50 (SFV-Rluc [5]): 95.1 µM
CCN(CC)CCCC(C)Nc1ccnc2cc(Cl)ccc12 (centres unmarked) [Chloroquine] | – | > 200 | 8.2 | 11.3 | 3.3×10^7 PFU/ml | – | 13.4 | – | – | >14.9 | – | two orders of magnitude | 104.4 | 12.2 | Suppression of CHIKV replicon (in words) (CHIKV replicon): no suppression of replicon propagation; also recorded: has no effect on CHIKV replicon; Effect on Rluc signal of SFVts9-Rluc (entry) (SFVts9-Rluc): dose-dependent inhibition of Rluc signal; Clinical efficacy in acute CHIKV viremia (duration of viremia, severity and duration of symptoms) (CHIKV [6]): failed to show any benefits
O=c1cc(-c2ccc(O)cc2)oc2cc(O)cc(O)c12 [Apigenin] | > 200 | > 200 | 4.4 | 7.2 | 6.7×10^7 PFU/ml | 70.8 | 20.6 | 22.5 | 28.3 | >9.7 | None of the other compounds, including the flavonoids apigenin, chrysin, naringenin and silybin, inhibited SFV entry | – | 8.7 | 18.0 | –
O=c1cc(-c2ccccc2)oc2cc(O)cc(O)c12 [Chrysin] | > 200 | > 200 | 22.9 | 43.3 | 2.9×10^8 PFU/ml | 127 | 13.7 | 46.8 | 50.2 | >14.6 | None of the other compounds, including the flavonoids apigenin, chrysin, naringenin and silybin, inhibited SFV entry | – | 13.8 | 18.1 | –
COc1c(C)c2c(c(O)c1C/C=C(\C)CCC(=O)O)C(=O)OC2 [Mycophenolic acid, reference compound] | > 200 | > 200 | 39 | 44.4 | 1.2×10^8 PFU/ml | – | ~100 | ~1 | – | >1.7 | – | approximately one order of magnitude | – | – | Change of replicon IC50 with guanosine supplementation (CHIKV replicon): increased by at least two orders of magnitude; IC50 (CHIKV replicon; read-out: EGFP IC50): 1.5 µM; IC50 (SFV-Rluc [5]): 121 µM
OCCN1CCN(CCCN2c3ccccc3Sc3ccc(Cl)cc32)CC1 [Perphenazine] | – | 155 | – | – | – | 48.1 | 25.1 | – | – | 6.2 | decreased the Rluc activity | – | 88.1 | 10.6 | –
CCSc1ccc2c(c1)N(CCCN1CCN(C)CC1)c1ccccc1S2 [Thiethylperazine] | – | 83.1 | – | – | – | 63.8 | 15 | – | – | 5.5 | decreased the Rluc activity | – | 101.1 | 26.5 | –
O=C1C[C@@H](c2ccc(O)cc2)Oc2cc(O)cc(O)c21 [Naringenin] | 104 | 94.1 | 19.3 | 21.2 | 8.2×10^7 PFU/ml | 118 | 2.2 | 25.8 | 30 | 42.8 | None of the other compounds, including the flavonoids apigenin, chrysin, naringenin and silybin, inhibited SFV entry | – | 6.2 | -0.0736 | IC50 (BHK-CHIKV-NCT cells; read-out: Cell viability IC50, ATP assay, 48 h exposure of BHK-CHIKV-NCT cells, up to 200 µM): 122 µM
